The numbers were not newly measured in patent publication US20050202001A1 (priority 2002, published 2005), which cites them from elsewhere.

Series [1] relates to normal human neonatal melanocytes.

`COc1cccc(-c2cc(=O)c3ccccc3o2)c1N` [PD98059]: the melanogenesis result (in series [1]; in the series on human melanoma cells) was “stimulated melanogenesis” each time.
